From US5428031A, “Methods of treating cardiac arrhythmia” (priority 1993, dated 1995)
pIC50: −log10 of the molar value.

Columns and labels:
[1] = biological target: T1, IKs (slowly activating delayed rectifier K+ current) (Cavia porcellus, UniProt O70344); experiment: cell-based; format: cell-based, guinea pig
T1 construct: Guinea pig ventricular myocytes were isolated; endogenous in cells; host or cells: isolated guinea pig ventricular myocytes
Method: Current amplitude is measured as the difference from the initial instantaneous current level following the capacitance discharge after changing the transmembrane voltage from -50 mV to +50 mV, to the current level at the end of the 1 second voltage step. Normally, an increase in the current amplitude occurs as a function of time and voltage during depolarization of the cardiac cell membrane and this increasing current has been defined as the delayed rectifier K^+ current (IK). […] IKs current occurs as a consequence of time- and voltage-dependent opening of ionic channels or pores in the cardiac cell membrane that allow the relatively selective flow of potassium ions (K^+) from the inside to the outside of the cell, that is, down the voltage and concentration gradient for K^+ ions that is inherent in cardiac cells. Thus, block of the IKs current ultimately reflects block of certain ion channels or pores in the cardiac cell membrane. However, the single pores or channels thought to underlie the IKs current have yet to be measured or identified at the single channel level.
Guinea pig ventricular myocytes were isolated using a modification of the procedure described by Mitra R and Morad M., "A Uniform Enzymatic Method for Dissociation of Myocytes from Hearts and Stomachs of Nertilorates", Am. J. Physiol. […] Excised hearts were perfused through the aorta (retrograde fashion) at a rate of 10 ml/min with oxygenated, warmed (37° C.) solutions described below. […] The head was then perfused with the same nominally Ca^2+ -free solution containing 150 units/ml Type II collagenase (Worthington) and 0.5 units/ml Type XIV protease (Sigma) for 8 minutes. This perfusate was followed by a Tyrode's solution containing 0.2 mM CaCl2 (without enzymes) for 5 minutes. The digested ventricles were cut into small pieces and gently shaken until cells were visibly dispersed. The cells were stored at room temperature until use, within 8 hours after isolation.
The suction microelectrode technique described by Giles, W. R. and Shibata, E. F., "Voltage clamp of bull-frog cardiac pacemaker cells: a quantitative, analysis of potassium currents". J. Physiol. […] Microelectrodes were made by using a two stage puller from square bore (1.0 mm o.d.) borosilicate capillary tubing. […] After establishing whole-cell recording mode, negative pressure was maintained on the pipette using a 1 ml gas-tight syringe attached via air tight tubing to the suction port of the microelectrode holder. This minimized dialysis of the cell with the pipette solution.
To record K^+ currents, the cells were bathed in a Ca^2+ -free Tyrode's :solution containing […] nisoldipine. […] A List EPC-7 clamp amplifier was used to voltage clamp the isolated cells. […] A variety of voltage pulse protocols were used to measure Ca^2+ current and three types of K^+ currents: inward rectifier (IK1), rapidly activating delayed rectifier (IKr) and the slowly activating delayed rectifier (IKs). Sanguinetti M. C. and Jurkiewicz, N. K., "Two components of cardiac delayed rectifier K^+ current: Differential sensitivity to block by Class III antiarrhythmic agents". […] Data was analyzed as % block from control membrane currents.
Nisoldipins was prepared as a 4 mM stock solution in polyethylne glycol 200. Compounds tested in this series were prepared as 10 mM stock solutions in polyethylene glycol 400 or dimethyl sulfoxide.

ICa (Ca2+ current) = experiment: voltage clamp measurement of Ca2+ current in isolated guinea pig ventricular myocytes; format: cell-based; details: 0.1 μM
Method: Guinea pig ventricular myocytes were isolated using a modification of the procedure described by Mitra R and Morad M., "A Uniform Enzymatic Method for Dissociation of Myocytes from Hearts and Stomachs of Nertilorates", Am. J. Physiol. 249:H1056-60 (1985). Excised hearts were perfused through the aorta (retrograde fashion) at a rate of 10 ml/min with oxygenated, warmed (37° C.) solutions described below. The heart was initially perfused for 7 minutes with a Tyrode's solution containing, in mM: 132 NaCl, 4 KCl, 1.2 MgCl2, 10 HEPES (formal name N-2-Hydroxyethylpiperazine-N-2-ethanesulfonic acid), 5 glucose, pH=7.2. The head was then perfused with the same nominally Ca^2+ -free solution containing 150 units/ml Type II collagenase (Worthington) and 0.5 units/ml Type XIV protease (Sigma) for 8 minutes. This perfusate was followed by a Tyrode's solution containing 0.2 mM CaCl2 (without enzymes) for 5 minutes. The digested ventricles were cut into small pieces and gently shaken until cells were visibly dispersed. […]
The suction microelectrode technique described by Giles, W. R. and Shibata, E. F., "Voltage clamp of bull-frog cardiac pacemaker cells: a quantitative, analysis of potassium currents". […]
To record K^+ currents, the cells were bathed in a Ca^2+ -free Tyrode's :solution containing […] nisoldipine. […] Data was analyzed as % block from control membrane currents. […]

Structure (SMILES)	pIC50 [1]	block of IKs ([1]; 5 μM)	effect on ICa (ICa (Ca2+ current))	selective block of IKs ([1]; selective: 50% block of IKs at 1 μM or less and at least 10 fold lower than for IKr and/or IK1)
Cc1cccc(NC(=O)N[C@@H]2N=C(c3ccccc3)c3ccccc3N(C)C2=O)c1 [Compound 4, (R)-N-(2,3-dihydro-1-methyl-2-oxo-5-phenyl-1H-1,4-benzodiazepin-3-yl)-N'-(3-methylphenyl)urea]	6.67	Complete block	Little or no effect	–
CN1C(=O)[C@H](NC(=O)/C=C/c2ccc(Cl)cc2Cl)N=C(c2ccccc2)c2ccccc21 [Example 26, E-(+)-N-[(3R)-2,3-Dihydro-1-methyl-2-oxo-5-phenyl-1H-1,4-benzo-diazepin-3-yl]-3-(2,4-dichlorophenyl)-2-propenamide]	–	–	–	selective blocker of IKs
